The values that follow come from ChEMBL document CHEMBL4043151, “Synthesis and biological evaluation of Aspergillomarasmine A derivatives as novel NDM-1 inhibitor to overcome antibiotics resistance” (Bioorg Med Chem, 2017).

Each structure is given as a SMILES string. ≈ marks a conversion by molar mass, not a printed value. Some results are limits rather than exact numbers.

In data set [1] the test system is Klebsiella pneumoniae ATCC BAA-2146. Nature of the data set: Inhibition of NDM1 in Klebsiella pneumoniae ATCC BAA-2146 assessed as potentiation of meropenem-induced microbial growth inhibition by measuring compound MIC by cell-based synergy screening assay.
For data set [2] the test system is unchanged. Nature of the data set: Inhibition of NDM1 in Klebsiella pneumoniae ATCC BAA-2146 assessed as rescue concentration needed to fully regain activity of meropenem at clinical breakpoint (2.5 uM) by cell-based synergy screening assay.
Data set [3] can be described thus: Inhibition of NDM1 (unknown origin) pre-incubated for 10 mins before nitrocefin substrate addition.
The subject of data set [4] is Klebsiella pneumoniae ATCC BAA-2146. The data set is described as follows: Inhibition of NDM1 in Klebsiella pneumoniae ATCC BAA-2146 assessed as potentiation of meropenem-induced microbial growth inhibition by cell-based synergy screening assay.
For data set [5] the test system is unchanged. The data set is described as follows: Inhibition of NDM1 in Klebsiella pneumoniae ATCC BAA-2146 assessed as potentiation of meropenem-induced microbial growth inhibition by measuring meropenem MIC by cell-based synergy screening assay (Rvb (meropenem MIC alone) = 32.5 microg/ml).
In the next data set the test system is Klebsiella pneumoniae. Nature of the data set: Growth inhibition of Klebsiella pneumoniae ATCC BAA-2146.
The subject of data set [6] is Klebsiella pneumoniae ATCC BAA-2146. The data set is described as follows: Inhibition of NDM1 in Klebsiella pneumoniae ATCC BAA-2146 assessed as potentiation of meropenem-induced microbial growth inhibition by measuring meropenem MIC by cell-based synergy screening assay (Rvb (meropenem MIC alone) = 8 microg/ml).
Data set [7] shares this test system. Nature of the data set: Inhibition of NDM1 in Klebsiella pneumoniae ATCC BAA-2146 assessed as potentiation of meropenem-induced microbial growth inhibition by measuring meropenem MIC by cell-based synergy screening assay (Rvb (meropenem MIC alone) = 65 microg/ml).
Data set [8] shares this test system. Nature of the data set: Inhibition of NDM1 in Klebsiella pneumoniae ATCC BAA-2146 assessed as potentiation of meropenem-induced microbial growth inhibition by measuring meropenem MIC by cell-based synergy screening assay (Rvb (meropenem MIC alone) = 16.25 microg/ml).
The test system is the same in data set [9]. Nature of the data set: Inhibition of NDM1 in Klebsiella pneumoniae ATCC BAA-2146 assessed as potentiation of meropenem-induced microbial growth inhibition by measuring meropenem MIC by cell-based synergy screening assay (Rvb (meropenem MIC alone) = 2 microg/ml).

For orientation: IC50 means the concentration that inhibits the measured activity by half. On to `C[C@H](CC(=O)O)NC[C@H](NC[C@H](N)C(=O)O)C(=O)O`, for which the results for the MIC (in data set [1]; in data set [5]; against Klebsiella pneumoniae) were above 250 µg/mL, 65 µg/mL and 125 µg/mL (≈ 451 µM), respectively. Also, the Activity in [2] was above 100 µM. For the same molecule, the concentration for half-maximal inhibition (IC50) in data set [3] (read-out: IC50) came to 94 µM. Further, the fractional inhibitory concentration index (FICI) in data set [4] was below 1.
With `N[C@H](CN[C@H](CN[C@@H](CC(=O)O)C(=O)O)C(=O)O)C(=O)O`, the figures for the MIC (in data set [1]; in data set [6]; in the data set with Klebsiella pneumoniae) were above 250 µg/mL, 65 µg/mL and 125 µg/mL (≈ 407 µM), respectively. The Activity in [2] amounted to 50 µM. Moreover, the IC50 in [3] (read-out: IC50) is 8.1 µM. For the same molecule, the fractional inhibitory concentration index (FICI) in data set [4] is below 0.62.
As to `COC(=O)[C@H](CN[C@@H](CC(=O)O)C(=O)O)NC[C@H](N)C(=O)OC`, the figures for the MIC (in data set [1]; in [7]; in the data set with Klebsiella pneumoniae) were above 298 µg/mL, 65 µg/mL and above 298 µg/mL, respectively. The Activity in data set [2] was above 100 µM. Besides, the IC50 in data set [3] (read-out: IC50) is 17.2 µM. In addition, the fractional inhibitory concentration index (FICI) in data set [4] was 2.
On to `C[C@@H](CN[C@@H](CN[C@@H](CC(=O)O)C(=O)O)C(=O)O)C(=O)O`, for which the MIC is above 250 µg/mL in [1], 65 µg/mL in [6] and 125 µg/mL (≈ 408 µM) against Klebsiella pneumoniae. Further, the Activity in data set [2] came out at 50 µM. In data set [3] (read-out: IC50), the IC50 came to 10.4 µM. The fractional inhibitory concentration index (FICI) in data set [4] was below 0.62.
For the molecule `N[C@H](CN[C@@H](CN[C@@H](CC(=O)O)C(=O)O)C(=O)O)C(=O)O`, the MIC is above 250 µg/mL in data set [1], 65 µg/mL in data set [8] and 62.5 µg/mL (≈ 203 µM) with Klebsiella pneumoniae. For the same molecule, in [2], the Activity was 50 µM. Also, the IC50 in [3] (read-out: IC50) turned out to be 9.3 µM. Moreover, in data set [4], the fractional inhibitory concentration index (FICI) was below 0.5.
As to `N[C@@H](CN[C@@H](CN[C@@H](CC(=O)O)C(=O)O)C(=O)O)C(=O)O`, the MIC is above 250 µg/mL in data set [1], 65 µg/mL in [9] and 62.5 µg/mL (≈ 203 µM) against Klebsiella pneumoniae. Moreover, the Activity in [2] amounted to 25 µM. Also, the IC50 in [3] (read-out: IC50) came to 7 µM. Further, the fractional inhibitory concentration index (FICI) in data set [4] is below 0.28.
Turning to `N[C@@H](CN[C@@H](CN1CCC[C@@H]1C(=O)O)C(=O)O)C(=O)O`, the MIC is above 406 µg/mL in [1], 65 µg/mL in data set [5] and 406 µg/mL (≈ 1400 µM) with Klebsiella pneumoniae. Further, in data set [2], the Activity was above 100 µM. For the same molecule, in data set [3] (read-out: IC50), the IC50 amounted to 9 µM. For the same molecule, the fractional inhibitory concentration index (FICI) in data set [4] is below 1.5.
As to `COC(=O)C[C@H](NC[C@H](NC[C@H](N)C(=O)O)C(=O)O)C(=O)OC`, the MIC in data set [1] is above 298 µg/mL; in [7], 65 µg/mL; in the data set with Klebsiella pneumoniae it was above 298 µg/mL. Also, the Activity in [2] was above 100 µM. For the same molecule, the IC50 result in data set [3] is “Not Active”. In addition, the fractional inhibitory concentration index (FICI) in [4] turned out to be 2.
As to `N[C@@H](CN[C@H](CN[C@@H](CC(=O)O)C(=O)O)C(=O)O)C(=O)O`, the MIC in data set [1] is above 250 µg/mL; in [5] it was 65 µg/mL; with Klebsiella pneumoniae, 125 µg/mL (≈ 407 µM). Also, in [2], the Activity turned out to be 100 µM. Further, the IC50 in [3] (read-out: IC50) is 10.4 µM. For the same molecule, the fractional inhibitory concentration index (FICI) in [4] was below 1.
Take `N[C@@H](CN[C@@H](CN1CCC[C@H]1C(=O)O)C(=O)O)C(=O)O`: the MIC in data set [1] is above 280 µg/mL; in data set [7] it was 65 µg/mL; in the data set on Klebsiella pneumoniae, above 280 µg/mL. Also, the Activity in data set [2] was above 100 µM. For the same molecule, the IC50 in data set [3] (read-out: IC50) amounted to 12.8 µM. Further, the fractional inhibitory concentration index (FICI) in data set [4] came out at 2.
As for `C[C@H](NC[C@H](NC[C@H](N)C(=O)O)C(=O)O)C(=O)O`, the MIC is above 250 µg/mL in data set [1], 65 µg/mL in [5] and 250 µg/mL (≈ 950 µM) against Klebsiella pneumoniae. The Activity in data set [2] is above 100 µM. In addition, the IC50 in data set [3] (read-out: IC50) was determined as 22.1 µM. The fractional inhibitory concentration index (FICI) in [4] is below 1.5.
